The species named for this assay is Oryctolagus cuniculus. As to the kind of experiment: In vitro ability to inhibit the herpes HSV-2 virus; Inactive. As to conditions: herpes simplex virus. In kind it is functional, organism-based.

Activity calls are given as the source filed them. No cut-off for these calls is given here.

Turning to `CCOP(=O)(CCCCCCOc1c(OC)cccc1OC)OCC`, the MIC entry was “inactive”.
Take `CCOP(=O)(CCCCCCOc1ccc(Br)cc1)OCC`: the MIC result was “inactive”.
With `CCOP(=O)(CCCCCCOc1ccc(C(=O)O)cc1)OCC`, the MIC entry is “inactive”.
For `CCOP(=O)(CCCCCCOc1ccc(Cl)cc1)OCC` the value was “inactive”; for `CCOP(=O)(CCCCCOc1ccc(OC)cc1Cl)OCC`, “inactive”.
In the case of `CCOP(=O)(CCCCOc1ccc(OC)cc1Cl)OCC` it was “inactive”.

For the origin of these results see ChEMBL document CHEMBL1122659, “Synthesis of some phosphonates with antiherpetic activity” (1984).
